In US10624871B2, “Bismuth(III) compounds and methods thereof” (priority 2016, dated 2020):

Legend:
NDM-1 = NDM-1 (Klebsiella pneumoniae, UniProt C7C422); test: Zn(II) displacement by Bi(III) using ICP-MS; assay type: binding; conditions: Zn2-NDM-1 20 μM incubated with CBS, 25° C., 5 hrs
Description: To monitor the replacement of Zn(II) by Bi(III), inductively-coupled plasma mass spectrometry (ICP-MS) was employed to accurately quantify ^209Bi and ^66Zn contents in various purified NDM-1 samples. Purified Zn2-NDM-1 was prepared as described previously and was dissolved in trace-metal-free ICP-MS buffer containing 50 mM HEPES, pH 7.0 through cycles of buffer washing using an Amicon Ultra-15 Centrifugal Filter Devices with 3 kDa cut-off. Zn2-NDM-1 (20 μM) was incubated with various concentrations of CBS at 25° C. for 5 hrs with mild shaking. The samples were subsequently dialyzed in ICP-MS buffer to remove unbound-metal ions and were acidified with 10% (v/v) nitric acid for 1 h with gentle heating for releasing the bound metal ions from the protein for ICP analysis. The samples were then mixed with 115In as an internal standard to reach a final concentration of 10 ppb in 1% HNO3. After calibration with the isotope standards ^209Bi, ^66Zn and ^34S from Sigma, the samples were subsequently injected into a quadrupole-based inductively coupled plasma mass spectrometer (Agilent 7500a, Agilent Technologies, CA, USA). ^209Bi, ^66Zn and ^34S isotopes abundances were determined simultaneously by integration of peak areas using the build-in software from the instrument so that ^34S abundance serves as a way for quantifying protein concentration in each sample.

C. freundii (NDM-1+) = test: Microdilution MIC and MBC assay, FICI; assay type: cell-based; conditions: Bi(III) compound at 32 μg mL^−1, C. feudii (NDM-1+)
E. coli (VIM-2+) = test: Microdilution MIC and MBC assay, FICI; assay type: cell-based; conditions: Bi(III) compound at 32 μg mL−1, E. coli (VIM-2+)
E. coli (NDM-1−) = test: Checkerboard MIC analysis, NDM-1-null strain; assay type: cell-based; conditions: NDM-1-null E. coli strain
Description: FIGS. 10 (a)-(b) show a heat map of checkerboard MIC analysis over MER and CBS against clinical isolates of (a) E. coli (NDM-1^+) and (b) E. coli (NDM-1^−).
MIC values of either antibiotics or Bi(III) compounds were determined firstly by standard broth micro-dilution method (Clinical and Laboratory Standards Institute (CLSI) M100-S20, 2010). Briefly, bacteria cells were cultured in LB broth overnight at 37° C. at 250 rpm and the optical density was measured at 600 nm (OD600) using a microtiter plate reader. The bacteria density was adjusted to about 1×10^6 CFU mL^−1 and checked by CFU counting on agar plates afterwards. Tested compounds were added triplicately into individual wells of flat-bottomed 96-well plates and performed two-fold serial dilution, followed by addition of prepared bacterial inoculum. […] The MIC was determined as the lowest concentration of compounds that could inhibit the growth of microorganism by both visual reading and OD600 measurement. […]
For the test of drug combination, antibiotics and Bi(III) compounds were co-administrated at concentrations up to 8 times higher than the MIC of the compounds tested alone. […] The FICIs were determined based on the following equation: FICI=FICA+FICB=CA/MICA+CB/MICB where MICA and MICB are the MIC values of compound A and B when functioning alone, and CA and CB are the concentrations of compound A and B at the effective combinations. […]

E. coli (IMP-4+) = test: Microdilution MIC and MBC assay, FICI; assay type: cell-based; conditions: Bi(III) compound at 32 μg mL−1, E. coli (IMP-4+)
E. coli cells (NDM+) = test: Resistance study, mutation frequency and MPC; assay type: cell-based
From the text: Given the very notion of MIC, all susceptible bacterial cells will be suppressed or killed by a dose above it. However, bacterial population is often large; an infection will likely contain first-step mutants with lowed susceptibility. Thus, the dose of compounds at MIC will adversely amplify the population of those less-susceptible mutants.^26 Thus mutant prevention concentration (MPC), defined as a compound concentration that suppresses the growth of first-step resistant mutant in large quantity of susceptible bacterial population, together with mutant prevention index (MPI=MPC/MIC), is introduced to estimate the mutant prevention ability of exemplary compound combination.
For a typical test, E. coli cells (NDM^+) at 1˜2×10^10 CFU were spread onto LB agar containing combinations of MER and CBS at identical concentrations. All the plates were incubated at 37° C. Upon incubation for 48 hrs, up to 4 colonies were picked and re-cultured from any plates with observable colonies, followed by the measurement of their MIC values. Any MICs of MER that were higher than the original values (16 μg mL^−1) were determined as mutant colony. The concentration that restricted the growth of mutant colonies was determined as MPC.

K. pneumonia (NDM-1+) = test: Microdilution MIC and MBC assay, FICI; assay type: cell-based; conditions: Bi(III) compound at 32 μg mL^−1, K. pneumonia (NDM-1+)
[1] = system: Rosetta (DE3) (NDM-1+) bacterial cells; test: Growth with other β-lactam antibiotics in presence of Bi(III) compounds; assay type: cell-based, E. coli; conditions: CEF 32 μg mL^−1; CBS 32 or Bi-NAC 16 μg mL^−1
Description: Note that evident restoration of activities of antibiotics was observed. The concentrations used in this test represent are: CBS […], Bi-NAC 16 μg mL^−1, all the antibiotics 32 μg mL^−1. Abbreviation: AMOX: amoxicillin; AMP: ampicillin; NAF: nafcillin; CEF: cefdinir.

Chain of NDM-1 (C7C422 whole entry, looked up): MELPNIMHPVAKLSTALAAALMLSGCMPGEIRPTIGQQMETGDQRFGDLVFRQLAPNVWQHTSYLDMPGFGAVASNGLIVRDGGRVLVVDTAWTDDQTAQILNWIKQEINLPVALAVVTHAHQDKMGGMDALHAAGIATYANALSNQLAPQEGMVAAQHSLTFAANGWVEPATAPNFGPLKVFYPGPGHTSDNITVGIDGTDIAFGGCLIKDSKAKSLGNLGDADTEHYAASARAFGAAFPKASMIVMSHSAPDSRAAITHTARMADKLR

Compound: O=C([O-])CC([O-])(CC(=O)[O-])C(=O)[O-].O=C([O-])CC([O-])(CC(=O)[O-])C(=O)[O-].[Bi+3].[Bi+3].[K+] [Complex 10, colloidal bismuth subcitrate]
- Bi(III) bound to NDM-1 (NDM-1): 0.96 equivalent
- Zn(II) replaced from NDM-1 (NDM-1): 2.13 molar equivalents
- MBC of MER with Bi(III) compound (C. freundii (NDM-1+)): 1 µg/mL
- MIC of MER with Bi(III) compound (C. freundii (NDM-1+)): 0.5 µg/mL
- MBC of MER with Bi(III) compound (E. coli (VIM-2+)): 1 µg/mL
- MIC of MER with Bi(III) compound (E. coli (VIM-2+)): 0.5 µg/mL
- synergy of MER and CBS in checkerboard MIC (E. coli (NDM-1−)): no inhibition was observed
- MBC of MER with Bi(III) compound (E. coli (IMP-4+)): 8 µg/mL
- MIC of MER with Bi(III) compound (E. coli (IMP-4+)): 4 µg/mL
- mutation frequency (E. coli cells (NDM+); MER with CBS at 32, MIC multiple 0.5): >5.22 × 10^−8
- mutation frequency (E. coli cells (NDM+); MER with CBS at 32, MIC multiple 1): 4.10 × 10^−8
- mutation frequency (E. coli cells (NDM+); MER with CBS at 32, MIC multiple 2): 3.28 × 10^−9
- mutation frequency (E. coli cells (NDM+); MER with CBS at 64, MIC multiple 0.5): 1.23 × 10^−8
- mutation frequency (E. coli cells (NDM+); MER with CBS at 64, MIC multiple 1): 1.15 × 10^−9
- mutation frequency (E. coli cells (NDM+); MER with CBS at 128, MIC multiple 0.5): 9.84 × 10^−10
- mutation frequency (E. coli cells (NDM+); MER with CBS at 256, MIC multiple 0.5): 1.31 × 10^−9
- MBC of MER with Bi(III) compound (K. pneumonia (NDM-1+)): 8 µg/mL
- MIC of MER with Bi(III) compound (K. pneumonia (NDM-1+)): 4 µg/mL
- reduction of growth rate of bacterial cells, with CEF [1]: 76%
